# Measured values taken from BindingDB's records for doi:10.1021/jm00177a009 (1980).
# Experiments:
# [1] = molecular target: DNA polymerase beta (Mus musculus, UniProt Q8K409); experiment: ChEBML_50773
# Source text: Ability to inhibit mouse beta DNA polymerase
# [2] = molecular target: Gag-Pol polyprotein (Woolly monkey sarcoma virus, UniProt P03359); experiment: ChEBML_196792
# Source text: Ability to inhibit simian sarcoma virus reverse transcriptase
# Chain of Gag-Pol polyprotein (P03359 642-1310 limits assumed): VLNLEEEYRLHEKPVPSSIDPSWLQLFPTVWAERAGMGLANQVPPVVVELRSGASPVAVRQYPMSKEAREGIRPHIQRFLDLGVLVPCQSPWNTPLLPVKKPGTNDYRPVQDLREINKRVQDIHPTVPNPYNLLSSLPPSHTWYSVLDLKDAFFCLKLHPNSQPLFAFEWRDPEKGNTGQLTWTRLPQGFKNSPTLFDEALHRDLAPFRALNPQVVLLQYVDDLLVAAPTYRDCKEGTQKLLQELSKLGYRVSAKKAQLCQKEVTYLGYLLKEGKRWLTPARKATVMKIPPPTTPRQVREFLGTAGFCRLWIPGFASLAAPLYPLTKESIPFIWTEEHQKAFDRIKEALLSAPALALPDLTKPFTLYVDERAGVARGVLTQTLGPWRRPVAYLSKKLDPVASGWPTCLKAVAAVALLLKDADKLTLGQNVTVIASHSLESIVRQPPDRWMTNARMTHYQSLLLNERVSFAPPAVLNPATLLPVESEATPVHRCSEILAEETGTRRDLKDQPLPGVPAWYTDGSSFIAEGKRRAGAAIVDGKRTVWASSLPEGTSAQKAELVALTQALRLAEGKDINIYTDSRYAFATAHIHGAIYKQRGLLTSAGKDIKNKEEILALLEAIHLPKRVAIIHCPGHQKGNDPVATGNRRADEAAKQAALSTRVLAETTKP
IC50 [1] [µM],IC50 [2] [µM],Structure (SMILES)
370,,"COC1/C=C/OC2(C)Oc3c(C)c(O)c4c(O)c(c(O)cc4c3C2=O)NC(=O)/C(C)=C\C=C\C(C)C(O)C(C)C(O)C(C)C(OC(C)=O)C1C (stereo not given) [2,15,17,26,29-pentahydroxy-11-methoxy-3,7,12,14,16,18,22-heptamethyl-6,23-dioxo-8,30-dioxa-24-azatetracyclo[23.3.1.14,7.05,28]triaconta-1(28),2,4,9,19,21,25(29),26-octaen-13-yl acetate]"
104,,"COC1/C=C/OC2(C)Oc3c(C)c(O)c4c(O)c(c(C=O)cc4c3C2=O)NC(=O)/C(C)=C\C=C\C(C)C(O)C(C)C(O)C(C)C(OC(C)=O)C1C (stereo not given) [26-formyl-2,15,17,29-tetrahydroxy-11-methoxy-3,7,12,14,16,18,22-heptamethyl-6,23-dioxo-8,30-dioxa-24-azatetracyclo[23.3.1.14,7.05,28]triaconta-1(28),2,4,9,19,21,25(29),26-octaen-13-yl acetate]"
120,,"COc1cccc(CN2CCN(/N=C/c3cc4c5c6c(C)c(O)c4c(O)c3NC(=O)/C(C)=C\C=C\C(C)C(O)C(C)C(O)C(C)C(OC(C)=O)C(C)C(OC)/C=C/OC(C)(O6)C5=O)CC2)c1 (stereo not given) [2,15,17,29-tetrahydroxy-11-methoxy-3,7,12,14,16,18,22-heptamethyl-26-[4-(3-Methoxy-benzyl)-piperazin-1-yl]-methylene-amino-6,23-dioxo-8,30-dioxa-24-azatetracyclo[23.3.1.14,7.05,28]triaconta-1(28),2,4,9,19,21,25(29),26-octaen-13-yl acetate]"
240,,"COC1/C=C/OC2(C)Oc3c(C)c(O)c4c(O)c(c(/C=N/N5CCCC5)cc4c3C2=O)NC(=O)/C(C)=C\C=C\C(C)C(O)C(C)C(O)C(C)C(OC(C)=O)C1C (stereo not given) [2,15,17,29-tetrahydroxy-11-methoxy-3,7,12,14,16,18,22-heptamethyl-26-Methylene-pyrrolidin-1-yl-amino-6,23-dioxo-8,30-dioxa-24-azatetracyclo[23.3.1.14,7.05,28]triaconta-1(28),2,4,9,19,21,25(29),26-octaen-13-yl acetate]"
150,,"COC1/C=C/OC2(C)Oc3c(C)c(O)c4c(O)c(c(/C=N/N5CCN(C)CC5)cc4c3C2=O)NC(=O)/C(C)=C\C=C\C(C)C(O)C(C)C(O)C(C)C(OC(C)=O)C1C (stereo not given) [2,15,17,29-tetrahydroxy-11-methoxy-3,7,12,14,16,18,22-heptamethyl-26-(4-methylhexahydro-1-pyrazinyliminomethyl)-6,23-dioxo-8,30-dioxa-24-azatetracyclo[23.3.1.14,7.05,28]triaconta-1(28),2,4,9,19,21,25(29),26-octaen-13-yl acetate]"
1100,,"CCN(CC)Cc1cc2c3c4c(C)c(O)c2c(O)c1NC(=O)/C(C)=C\C=C\C(C)C(O)C(C)C(O)C(C)C(OC(C)=O)C(C)C(OC)/C=C/OC(C)(O4)C3=O (stereo not given) [26-diethylaminomethyl-2,15,17,29-tetrahydroxy-11-methoxy-3,7,12,14,16,18,22-heptamethyl-6,23-dioxo-8,30-dioxa-24-azatetracyclo[23.3.1.14,7.05,28]triaconta-1(28),2,4,9,19,21,25(29),26-octaen-13-yl acetate]"
1100,370,"COC1/C=C/OC2(C)Oc3c(C)c(O)c4c(O)c(ccc4c3C2=O)NC(=O)/C(C)=C\C=C\C(C)C(O)C(C)C(O)C(C)C(OC(C)=O)C1C (stereo not given) [2,15,17,29-tetrahydroxy-11-methoxy-3,7,12,14,16,18,22-heptamethyl-6,23-dioxo-8,30-dioxa-24-azatetracyclo[23.3.1.14,7.05,28]triaconta-1(28),2,4,9,19,21,25(29),26-octaen-13-yl acetate]"
4200,1450,"COC1/C=C/OC2(C)Oc3c(C)c(O)c4c(O)c(c(CN5CCNCC5)cc4c3C2=O)NC(=O)/C(C)=C\C=C\C(C)C(O)C(C)C(O)C(C)C(OC(C)=O)C1C (stereo not given) [26-hexahydro-1-pyrazinylmethyl-2,15,17,29-tetrahydroxy-11-methoxy-3,7,12,14,16,18,22-heptamethyl-6,23-dioxo-8,30-dioxa-24-azatetracyclo[23.3.1.14,7.05,28]triaconta-1(28),2,4,9,19,21,25(29),26-octaen-13-yl acetate]"
